Drawing on patent publication US9598423B2 (BRISTOL-MYERS SQUIBB COMPANY, priority 2013, dated 2017), this text covers IC50 for 27 compounds.

One test has as its target CK1δ (Homo sapiens (Human), UniProt P48730). Description: CK1δ kinase assay (Caliper LABCHIP electrophoretic separation of fluoresceinated peptide substrate and product). As to conditions: 200 pM CK1δ, 50 μM ATP, 1.5 μM peptide substrate, 22 hours at room temperature; read-out: CK1δ (IC50). In kind it is biochemical. The method, boiled down: (§1)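 Reactions ran 22 hours at room temperature and were stopped with EDTA. Phosphorylated product and unphosphorylated substrate were then separated electrophoretically. Compounds were tested at eleven concentrations, and IC50 values came from non-linear regression.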

A further test addresses CK1ε (Homo sapiens (Human), UniProt P49674). Description: CK1ε kinase assay (Caliper LABCHIP electrophoretic separation of fluoresceinated peptide substrate and product). It is filed as biochemical. To be noted: 200 pM CK1ε, 50 μM ATP, 1.5 μM peptide substrate, 22 hours at room temperature; read-out: CK1ε (IC50). The method, boiled down: as §1

CK1δ, sequence (P48730 whole entry): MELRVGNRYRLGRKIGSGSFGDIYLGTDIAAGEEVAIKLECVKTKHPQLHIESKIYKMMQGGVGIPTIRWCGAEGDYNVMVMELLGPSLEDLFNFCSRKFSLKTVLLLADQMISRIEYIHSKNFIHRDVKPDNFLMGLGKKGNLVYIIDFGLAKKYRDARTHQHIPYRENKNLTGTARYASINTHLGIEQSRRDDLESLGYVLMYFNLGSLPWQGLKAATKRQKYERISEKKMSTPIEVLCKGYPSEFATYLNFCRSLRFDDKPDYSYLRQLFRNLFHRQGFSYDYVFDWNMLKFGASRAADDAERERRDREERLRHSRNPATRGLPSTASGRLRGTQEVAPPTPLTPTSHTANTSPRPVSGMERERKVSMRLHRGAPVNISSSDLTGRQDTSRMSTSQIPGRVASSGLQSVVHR
CK1ε, sequence (P49674 whole entry): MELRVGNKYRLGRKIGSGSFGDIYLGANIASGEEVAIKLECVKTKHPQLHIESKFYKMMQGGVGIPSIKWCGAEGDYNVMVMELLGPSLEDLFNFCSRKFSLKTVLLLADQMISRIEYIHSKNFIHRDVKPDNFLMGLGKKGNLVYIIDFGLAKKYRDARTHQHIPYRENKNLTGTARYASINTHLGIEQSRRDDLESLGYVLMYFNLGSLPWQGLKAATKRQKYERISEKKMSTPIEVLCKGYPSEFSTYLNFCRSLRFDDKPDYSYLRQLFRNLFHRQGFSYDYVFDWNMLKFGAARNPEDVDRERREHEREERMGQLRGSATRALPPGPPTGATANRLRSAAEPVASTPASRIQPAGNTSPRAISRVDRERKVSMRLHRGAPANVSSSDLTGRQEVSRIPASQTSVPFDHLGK

As a reminder, the IC50 is the concentration at which inhibition is half-maximal. On to `Cc1ccc(-c2nn3c(c2C(N)=O)CN(C(=O)Nc2ccc(C#N)cc2)CC3)cc1C` [Compound 282, N^5-(4-Cyanophenyl)-2-(3,4-dimethylphenyl)-6,7-dihydropyrazolo[1,5-a] pyrazine-3,5(4H)-dicarboxamide], for which the IC50 at CK1δ and at CK1ε was 0.01 to 10 nM each time.
For `Cc1cc(F)cc(-c2nn3c(c2C(N)=O)CN(C(=O)Nc2ccc4ncsc4c2)CC3)c1` [Compound 225, N^5-(Benzo[d]thiazol-6-yl)-2-(3-fluoro-5-methylphenyl)-6,7-dihydropyrazolo[1,5-a] pyrazine-3,5(4H)-dicarboxamide], the IC50 on CK1δ and at CK1ε was 0.01 to 10 nM each time.
As to `NC(=O)c1c(-c2cccc(F)c2)nn2c1CN(C(=O)Nc1ccc3ccccc3c1)CC2` [Compound 59, 2-(3-Fluorophenyl)-N^5-(naphthalen-2-yl)-6,7-dihydropyrazolo[1,5-a]pyrazine-3,5(4H)-dicarboxamide], the 50% inhibitory concentration (IC50) at CK1δ and at CK1ε was 0.01 to 10 nM throughout.
As to `Cc1ccc(-c2nn3c(c2C(N)=O)CN(C(=O)Nc2ccc4ncsc4c2)CC3)cc1Cl` [Compound 254, N^5-(Benzo[d]thiazol-6-yl)-2-(3-chloro-4-methylphenyl)-6,7-dihydropyrazolo[1,5-a] pyrazine-3,5(4H)-dicarboxamide], the IC50 on CK1δ and on CK1ε was 0.01 to 10 nM each time.
In the case of `Cc1ccc(-c2nn3c(c2C(N)=O)CN(C(=O)Nc2ccc(C#N)c(C)c2)CC3)cc1Cl` [Compound 249, 2-(3-Chloro-4-methylphenyl)-N^5-(4-cyano-3-methylphenyl)-6,7-dihydropyrazolo[1,5-a]pyrazine-3,5(4H)-dicarboxamide], the half-inhibitory concentration (IC50) on CK1δ and on CK1ε was 0.01 to 10 nM throughout.
Turning to `COc1cc(NC(=O)N2CCn3nc(-c4cccc(Cl)c4)c(C(N)=O)c3C2)ccc1C#N` [Compound A40, 2-(3-Chlorophenyl)-N^5-(4-cyano-3-methoxyphenyl)-6,7-dihydropyrazolo[1,5-a]pyrazine-3,5(4H)-dicarboxamide], the IC50 at CK1δ and on CK1ε was 0.01 to 10 nM throughout.
For the compound `NC(=O)c1c(-c2cc(Cl)cc(Cl)c2)nn2c1CN(C(=O)Nc1ccc(Cl)c(Cl)c1)CC2` [Compound 302, N^5-(3,4-Dichlorophenyl)-2-(3,5-dichlorophenyl)-6,7-dihydropyrazolo[1,5-a] pyrazine-3,5(4H)-dicarboxamide], the 50% inhibitory concentration (IC50) at CK1δ and on CK1ε was 0.01 to 10 nM each time.
`N#Cc1ccc(NC(=O)N2CCn3nc(-c4ccc(F)c(Cl)c4)c(C(N)=O)c3C2)cc1N1CCOCC1` [Compound A49, 2-(3-Chloro-4-fluorophenyl)-N^5-(4-cyano-3-morpholinophenyl)-6,7-dihydropyrazolo[1,5-a]pyrazine-3,5(4H)-dicarboxamide]: the 50% inhibitory concentration (IC50) on CK1δ and at CK1ε was 0.01 to 10 nM throughout.
Turning to `N#Cc1ccc(NC(=O)N2Cc3c(C(N)=O)c(-c4ccc(F)c(Cl)c4)nn3C(C(=O)NC3CCOCC3)C2)cc1` (single isomer, unassigned) [Compound A29, 2-(3-Chloro-4-fluorophenyl)-N^5-(4-cyanophenyl)-N^7-(tetrahydro-2H-pyran-4-yl)-6,7-dihydropyrazolo[1,5-a]pyrazine-3,5,7(4H)-tricarboxamide], the half-inhibitory concentration (IC50) at CK1δ and at CK1ε was 10 to 100 nM each time.
For `N#Cc1ccc(NC(=O)N2Cc3c(C(N)=O)c(-c4ccc(F)c(Cl)c4)nn3[C@H](C(F)F)C2)cc1F` [Compound A22, (S)-2-(3-Chloro-4-fluorophenyl)-N^5-(4-cyano-3-fluorophenyl)-7-(difluoromethyl)-6,7-dihydropyrazolo[1,5-a]pyrazine-3,5(4H)-dicarboxamide], the IC50 at CK1δ and at CK1ε was 0.01 to 10 nM each time.
For the compound `CC(C)(C)NC(=O)N1CCn2nc(-c3cncc(F)c3)c(C(N)=O)c2C1` [Compound 113, N^5-(tert-Butyl)-2-(5-fluoropyridin-3-yl)-6,7-dihydropyrazolo[1,5-a]pyrazine-3,5(4H)-dicarboxamide], the half-inhibitory concentration (IC50) lay within 10 to 100 nM on CK1δ and 100 to 2000 nM on CK1ε.
Regarding `NC(=O)c1c(-c2cccc(F)c2)nn2c1CN(C(=O)Nc1ccc(-c3ccccc3)cc1)CC2` [Compound 62, N^5-([1,1′-Biphenyl]-4-yl)-2-(3-fluorophenyl)-6,7-dihydropyrazolo[1,5-a]pyrazine-3,5(4H)-dicarboxamide], the half-maximal inhibitory concentration (IC50) at CK1δ and on CK1ε was 0.01 to 10 nM each time.
`N#Cc1ccc(NC(=O)N2CCn3nc(-c4ccc(F)c(Cl)c4)c(C(N)=O)c3C2)cc1C(F)(F)F` [Compound 204, 2-(3-Chloro-4-fluorophenyl)-N^5-(4-cyano-3-(trifluoromethyl)phenyl)-6,7-dihydropyrazolo[1,5-a] pyrazine-3,5(4H)-dicarboxamide]: the concentration for half-maximal inhibition (IC50) on CK1δ and at CK1ε was 0.01 to 10 nM each time.
In the case of `NC(=O)c1c(-c2cccc(Cl)c2)nn2c1CN(C(=O)Nc1cc(F)cc(F)c1)CC2` [Compound 169, 2-(3-Chlorophenyl)-N^5-(3,5-difluorophenyl)-6,7-dihydropyrazolo[1,5-a] pyrazine-3,5(4H)-dicarboxamide], the concentration for half-maximal inhibition (IC50) on CK1δ and at CK1ε was 0.01 to 10 nM in each case.
On to `NC(=O)c1c(-c2cccc(Cl)c2)nn2c1CN(C(=O)Nc1ccc(N3CCCCC3)cc1)C[C@@H]2CF` [Compound A11, (R)-2-(3-Chlorophenyl)-7-(fluoromethyl)-N^5-(4-(piperidin-1-yl)phenyl)-6,7-dihydropyrazolo[1,5-a]pyrazine-3,5(4H)-dicarboxamide], for which the IC50 at CK1δ and on CK1ε was 0.01 to 10 nM each time.
Turning to `N#Cc1ccc(NC(=O)N2CCn3nc(-c4cc(Cl)c5[nH]ncc5c4)c(C(N)=O)c3C2)cc1F` [Compound 316, 2-(7-Chloro-1H-indazol-5-yl)-N^5-(4-cyano-3-fluorophenyl)-6,7-dihydropyrazolo[1,5-a]pyrazine-3,5(4H)-dicarboxamide], the IC50 at CK1δ and at CK1ε was 0.01 to 10 nM each time.
On to `Cc1ccc(-c2nn3c(c2C(N)=O)CN(C(=O)Nc2ccc(C#N)c(Cl)c2)CC3)cc1Cl` [Compound 256, N^5-(3-Chloro-4-cyanophenyl)-2-(3-chloro-4-methylphenyl)-6,7-dihydropyrazolo[1,5-a] pyrazine-3,5(4H)-dicarboxamide], for which the concentration for half-maximal inhibition (IC50) on CK1δ and on CK1ε was 0.01 to 10 nM in each case.
Regarding `Cc1cc(NC(=O)N2CCn3nc(-c4cc(F)cc(Cl)c4)c(C(N)=O)c3C2)ccc1C#N` [Compound 221, 2-(3-Chloro-5-fluorophenyl)-N^5-(4-cyano-3-methylphenyl)-6,7-dihydropyrazolo[1,5-a]pyrazine-3,5(4H)-dicarboxamide], the IC50 on CK1δ and at CK1ε was 0.01 to 10 nM in each case.
Take `COc1cccc(NC(=O)N2CCn3nc(-c4cccc(F)c4)c(C(N)=O)c3C2)c1` [Compound 73, 2-(3-Fluorophenyl)-N^5-(3-methoxyphenyl)-6,7-dihydropyrazolo[1,5-a]pyrazine-3,5(4H)-dicarboxamide]: the 50% inhibitory concentration (IC50) at CK1δ and on CK1ε was 0.01 to 10 nM each time.
In the case of `Cc1nc(-c2ccc(NC(=O)N3CCn4nc(-c5cccc(Cl)c5)c(C(N)=O)c4C3)cc2)cs1` [Compound A46, 2-(3-Chlorophenyl)-N^5-(4-(2-methylthiazol-4-yl)phenyl)-6,7-dihydropyrazolo[1,5-a]pyrazine-3,5(4H)-dicarboxamide], the IC50 at CK1δ and on CK1ε was 0.01 to 10 nM in each case.
Regarding `Cc1cc(NC(=O)N2CCn3nc(-c4ccc(Cl)c(Cl)c4)c(C(N)=O)c3C2)ccc1C#N` [Compound 214, N^5-(4-Cyano-3-methylphenyl)-2-(3,4-dichlorophenyl)-6,7-dihydropyrazolo[1,5-a] pyrazine-3,5(4H)-dicarboxamide], the half-inhibitory concentration (IC50) at CK1δ and at CK1ε was 0.01 to 10 nM in each case.
Turning to `NC(=O)c1c(-c2ccc(Cl)c(Cl)c2)nn2c1CN(C(=O)Nc1ccc(OC(F)(F)F)cc1)CC2` [Compound 213, 2-(3,4-Dichlorophenyl)-N^5-(4-(trifluoromethoxy)phenyl)-6,7-dihydropyrazolo[1,5-a] pyrazine-3,5(4H)-dicarboxamide], the IC50 at CK1δ and on CK1ε was 0.01 to 10 nM each time.
Turning to `Cc1cc(-c2nn3c(c2C(N)=O)CN(C(=O)Nc2ccc4c(c2)OC(F)(F)O4)CC3)ccc1F` [Compound 247, N^5-(2,2-Difluorobenzo [d][1,3]dioxol-5-yl)-2-(4-fluoro-3-methylphenyl)-6,7-dihydropyrazolo[1,5-a]pyrazine-3,5(4H)-dicarboxamide], the 50% inhibitory concentration (IC50) on CK1δ and on CK1ε was 0.01 to 10 nM in each case.
`CC(C)(C)C(=O)N1CCC(NC(=O)N2CCn3nc(-c4cccc(F)c4)c(C(N)=O)c3C2)CC1` [Compound 98, 2-(3-Fluorophenyl)-N^5-(1-pivaloylpiperidin-4-yl)-6,7-dihydropyrazolo[1,5-a]pyrazine-3,5(4H)-dicarboxamide]: the IC50 at CK1δ and at CK1ε was 0.01 to 10 nM throughout.
Consider `NC(=O)c1c(-c2ccc(F)c(Cl)c2)nn2c1CN(C(=O)Nc1cc(F)c(F)c(F)c1)CC2` [Compound 187, 2-(3-Chloro-4-fluorophenyl)-N^5-(3,4,5-trifluorophenyl)-6,7-dihydropyrazolo[1,5-a] pyrazine-3,5(4H)-dicarboxamide], for which the IC50 at CK1δ and at CK1ε was 0.01 to 10 nM in each case.
Regarding `NC(=O)c1c(-c2cc(Cl)c(F)c(Cl)c2)nn2c1CN(C(=O)Nc1ccc(C(F)(F)F)cc1)CC2` [Compound 262, 2-(3,5-Dichloro-4-fluorophenyl)-N^5-(4-(trifluoromethyl)phenyl)-6,7-dihydropyrazolo[1,5-a]pyrazine-3,5(4H)-dicarboxamide], the IC50 at CK1δ and at CK1ε was 0.01 to 10 nM throughout.
With `Cn1ncc2c(F)cc(-c3nn4c(c3C(N)=O)CN(C(=O)Nc3ccc(C#N)cc3)CC4)cc21` [Compound 326, N^5-(4-Cyanophenyl)-2-(4-fluoro-1-methyl-1H-indazol-6-yl)-6,7-dihydropyrazolo[1,5-a]pyrazine-3,5(4H)-dicarboxamide], the IC50 at CK1δ and on CK1ε was 0.01 to 10 nM in each case.
